# Reference: paper PMC8144350, “Block of TREK and TRESK K2P channels by lamotrigine and two derivatives sipatrigine and CEN-092” (Biochemistry and Biophysics Reports, 2021)
# Legend:
# Experiment in all cases: whole-cell patch-clamp, tsA201 cells
# Assay type in all cases: cell-based
# TREK-1 [1] = biological target: T1, TREK-1 (Homo sapiens, UniProt O95069)
# T1 construct: gene KCNK2; wild-type human TREK-1 (NP_055032.1)
# T1 sequence (O95069 1-426): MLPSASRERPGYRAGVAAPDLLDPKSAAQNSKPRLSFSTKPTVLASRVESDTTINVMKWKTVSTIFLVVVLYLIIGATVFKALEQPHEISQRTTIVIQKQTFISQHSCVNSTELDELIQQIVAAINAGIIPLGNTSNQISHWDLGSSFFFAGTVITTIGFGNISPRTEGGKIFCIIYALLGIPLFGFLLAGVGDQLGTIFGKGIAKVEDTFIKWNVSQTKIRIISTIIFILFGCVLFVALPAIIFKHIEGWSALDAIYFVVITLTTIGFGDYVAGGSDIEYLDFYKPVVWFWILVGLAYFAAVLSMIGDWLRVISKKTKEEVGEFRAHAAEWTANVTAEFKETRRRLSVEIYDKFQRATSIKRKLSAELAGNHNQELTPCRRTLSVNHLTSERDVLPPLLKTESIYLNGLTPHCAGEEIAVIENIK
# TREK-2 = biological target: T2, TREK-2 (Homo sapiens, UniProt P57789)
# T2 construct: gene KCNK10; wild-type human TREK-2 (NP_612190.1)
# T2 sequence (P57789 1-538): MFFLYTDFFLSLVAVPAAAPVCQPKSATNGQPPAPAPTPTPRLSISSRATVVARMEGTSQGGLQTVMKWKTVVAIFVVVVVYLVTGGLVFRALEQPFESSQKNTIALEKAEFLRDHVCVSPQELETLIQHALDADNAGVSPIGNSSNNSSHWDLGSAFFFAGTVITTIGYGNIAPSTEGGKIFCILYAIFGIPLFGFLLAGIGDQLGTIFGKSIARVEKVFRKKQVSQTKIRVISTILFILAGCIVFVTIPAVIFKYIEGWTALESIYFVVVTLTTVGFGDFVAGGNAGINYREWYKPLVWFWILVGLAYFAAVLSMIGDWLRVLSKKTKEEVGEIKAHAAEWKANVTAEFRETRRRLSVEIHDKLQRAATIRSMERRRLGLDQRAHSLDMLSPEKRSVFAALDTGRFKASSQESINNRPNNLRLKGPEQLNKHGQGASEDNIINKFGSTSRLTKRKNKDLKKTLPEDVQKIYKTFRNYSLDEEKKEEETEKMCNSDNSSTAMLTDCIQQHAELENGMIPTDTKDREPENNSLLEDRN
# TREK-1 [2] = biological target: T1, TREK-1; remark: listed apart in the source
# TRESK = biological target: T3, TRESK (Homo sapiens, UniProt Q7Z418)
# T3 construct: gene KCNK18; wild-type human TRESK (NP_862823.1)
# T3 sequence (Q7Z418 1-384): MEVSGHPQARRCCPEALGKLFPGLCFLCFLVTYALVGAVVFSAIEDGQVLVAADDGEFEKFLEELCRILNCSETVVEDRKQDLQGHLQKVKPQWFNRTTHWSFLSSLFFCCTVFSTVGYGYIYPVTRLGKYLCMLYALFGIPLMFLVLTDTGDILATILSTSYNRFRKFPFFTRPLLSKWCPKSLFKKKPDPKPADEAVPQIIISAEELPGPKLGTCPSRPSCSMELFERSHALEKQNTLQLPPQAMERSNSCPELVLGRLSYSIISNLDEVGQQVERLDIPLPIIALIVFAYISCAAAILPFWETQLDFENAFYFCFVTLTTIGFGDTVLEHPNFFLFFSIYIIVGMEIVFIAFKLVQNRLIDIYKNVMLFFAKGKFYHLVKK
SMILES,EC50 (TREK-1 [1]) [µM],inhibition at 100 µM (TREK-2) [%],inhibition at 100 µM (TREK-1 [2]) [%],inhibition at 100 µM (TRESK) [%]
CN1CCN(c2ncc(-c3cc(Cl)cc(Cl)c3Cl)c(N)n2)CC1 [sipatrigine],16,85,–,–
Nc1nnc(-c2cccc(Cl)c2Cl)c(N)n1 [lamotrigine],–,14,30,35
"Nc1nnc(-c2cc(C(F)(F)F)cc(C(F)(F)F)c2)c(N)n1 [CEN-092, 3,5-diamino-6-(3,5-bistrifluoromethylphenyl)-1,2,4-triazine]",–,–,21,43
